Data from patent EP1202975B1, “SUBSTITUTED POLYCYCLIC ARYL AND HETEROARYL PYRAZINONES USEFUL FOR SELECTIVE INHIBITION OF THE COAGULATION CASCADE” (Pharmacia Corporation, priority 1999, dated 2000).

Experiments:
TF-VIIa = target: T1, TF-VIIa (Homo sapiens, UniProt P08709); assay: TF-VIIa Assay; type: biochemical; details: for IC50: cells given as a plain number (IC50), read-out: IC50 or % Inhibition TF-VIIa (30 µM); for IC50 or % Inhibition TF-VIIa (30 µM): % inhibition at 30 µM
T1 construct: 2nM recombinant human factor VIIa; purchased American Diagnostica, Greenwich CT; host or cells: soluble TF made in house in E. coli
T1 sequence (P08709 213-466 limits assumed): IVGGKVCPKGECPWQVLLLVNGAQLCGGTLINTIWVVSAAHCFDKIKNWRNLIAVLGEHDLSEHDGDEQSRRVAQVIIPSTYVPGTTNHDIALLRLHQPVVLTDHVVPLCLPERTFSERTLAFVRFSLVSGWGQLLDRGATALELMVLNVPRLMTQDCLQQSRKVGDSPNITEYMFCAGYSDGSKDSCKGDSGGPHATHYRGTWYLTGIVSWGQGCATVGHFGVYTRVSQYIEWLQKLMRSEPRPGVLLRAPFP
T1 sequence (P08709 61-212 limits assumed): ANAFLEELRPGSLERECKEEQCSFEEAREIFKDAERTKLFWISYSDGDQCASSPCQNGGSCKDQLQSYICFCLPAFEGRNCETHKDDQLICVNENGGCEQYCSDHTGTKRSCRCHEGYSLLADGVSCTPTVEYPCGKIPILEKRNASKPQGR
T1 sequence (P13726 33-251 partner limits assumed): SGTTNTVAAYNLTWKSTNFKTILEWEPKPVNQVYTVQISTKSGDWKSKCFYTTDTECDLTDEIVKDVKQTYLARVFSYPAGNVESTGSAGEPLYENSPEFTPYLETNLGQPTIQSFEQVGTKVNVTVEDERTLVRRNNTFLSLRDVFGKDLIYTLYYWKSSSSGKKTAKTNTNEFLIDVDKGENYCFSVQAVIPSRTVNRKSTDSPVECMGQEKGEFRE

Human factor Xa = Human factor Xa (Homo sapiens, UniProt P00742); assay: Xa Assay; details: for IC50 or % Inhibition Factor Xa (30 µM): % inhibition at 30 µM; for IC50: read-out: IC50 or % Inhibition Factor Xa (30 µM), cells given as a plain number (IC50)
Human factor Xa, sequence (P00742 235-488 limits assumed): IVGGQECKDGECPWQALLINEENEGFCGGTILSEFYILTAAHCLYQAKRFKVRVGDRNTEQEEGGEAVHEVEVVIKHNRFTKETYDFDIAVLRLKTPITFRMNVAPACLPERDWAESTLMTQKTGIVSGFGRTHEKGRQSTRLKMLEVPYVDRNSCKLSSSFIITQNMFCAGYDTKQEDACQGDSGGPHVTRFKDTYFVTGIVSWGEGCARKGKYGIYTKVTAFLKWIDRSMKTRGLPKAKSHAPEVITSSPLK
Human factor Xa, sequence (P00742 41-179 limits assumed): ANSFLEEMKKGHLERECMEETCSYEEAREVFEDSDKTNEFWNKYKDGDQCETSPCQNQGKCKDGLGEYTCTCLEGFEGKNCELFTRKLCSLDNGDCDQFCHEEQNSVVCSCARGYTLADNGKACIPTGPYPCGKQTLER

Row | Compound | IC50 (TF-VIIa) | IC50 or % Inhibition Factor Xa (30 µM) (Human factor Xa) | IC50 (Human factor Xa) | IC50 or % Inhibition TF-VIIa (30 µM) (TF-VIIa)
1 | N=C(N)c1ccc(CNC(=O)Cn2c(-c3ccccc3)cnc(NC(=O)Nc3ccccc3)c2=O)cc1 [Example 106] | 1.11 µM | 30% |  | 
2 | N=C(N)c1ccc(CNC(=O)Cn2c(-c3ccccc3)cnc(NC(=O)Nc3cccc(N)c3)c2=O)cc1 [Example 107] | 0.57 µM | 35% |  | 
3 | N=C(N)c1ccc(CNC(=O)Cn2c(-c3ccccc3)cnc(NC(=O)Nc3cc(Cl)cc(Cl)c3)c2=O)cc1 [Example 108] | 4.13 µM | 20% |  | 
4 | CC(C)NC(=O)Nc1ncc(-c2ccccc2)n(CC(=O)NCc2ccc(C(=N)N)cc2)c1=O [Example 109] | 6.17 µM | 10% |  | 
5 | CC(C)Nc1nc(Cl)c(-c2cc(N)ccc2F)n(CC(=O)NCc2ccc(C(=N)N)cc2F)c1=O [compound 73] | 0.03 µM | 0% |  | 
6 | CC(C)Nc1nc(Cl)c(-c2ccc(Cl)nc2)n(CC(=O)NCc2ccc(C(=N)N)cc2F)c1=O [compound 74] | 3.25 µM | 13% |  | 
7 | CC(C)Nc1nc(Cl)c(-c2cccnc2)n(CC(=O)NCc2ccc(C(=N)N)cc2)c1=O [compound 75] | 0.21 µM | 9% |  | 
8 | N=C(N)c1ccc(CNC(=O)Cn2c(-c3cccc([N+](=O)[O-])c3)c(Cl)nc(NCCc3ccccc3)c2=O)cc1 [compound 77] | 2.52 µM |  | > 30 µM | 
9 | Cc1ccccc1-c1c(Cl)nc(NCCc2ccccc2)c(=O)n1CC(=O)NCc1ccc(C(=N)N)cc1 [compound 78] | 0.43 µM | 16%@30 |  | 
10 | N=C(N)c1ccc(CNC(=O)Cn2c(-c3cccc4ccccc34)c(Cl)nc(NCCc3ccccc3)c2=O)cc1 [compound 80] | 1.29 µM | 29%@30 |  | 
11 | Cc1cccc(-c2c(Cl)nc(NCCc3ccccc3)c(=O)n2CC(=O)NCc2ccc(C(=N)N)cc2)c1 [compound 81] | 1 µM | 33%@30 |  | 
12 | N=C(N)c1ccc(CNC(=O)Cn2c(-c3ccc4ccccc4c3)c(Cl)nc(NCCc3ccccc3)c2=O)cc1 [compound 82] | 20 µM | 32%@30 |  | 
13 | Cc1cccc(-c2cnc(NCCc3ccccc3)c(=O)n2CC(=O)NCc2ccc(C(=N)N)cc2)c1 [compound 83] | 0.75 µM |  | > 30 µM | 
14 | Cc1cccc(-c2cnc(NCCc3ccccc3)c(=O)n2CC(=O)NCc2ccc(C(=N)N)cc2)c1 [compound 84] | 3.03 µM |  | > 30 µM | 
15 | Cc1cccc(-c2cnc(NCCc3ccccc3)c(=O)n2CC(=O)NCc2ccc(C(=N)N)cc2)c1 [compound 85] | 0.88 µM | 42%@30 |  | 
16 | N=C(N)c1ccc(CNC(=O)Cn2c(-c3cccc(N)c3)c(Cl)nc(NCCc3ccccc3)c2=O)cc1 [compound 86] | 0.07 µM | 26%@30 |  | 
17 | N=C(N)c1ccc(CNC(=O)Cn2c(-c3cccc(N)c3)c(Cl)nc(NCCc3cccc(Cl)c3)c2=O)cc1 [compound 87] | 0.07 µM |  | > 30 µM | 
18 | N=C(N)c1ccc(CNC(=O)Cn2c(-c3cccc(N)c3)c(Cl)nc(NCc3ccccc3)c2=O)cc1 [compound 88] | 0.1 µM |  | > 30 µM | 
19 | Nc1cccc(-c2c(Cl)nc(NC3CCC3)c(=O)n2CC(=O)NCCc2ccccc2)c1 [compound 89] |  | 5%@30 |  | 5%@30
20 | N=C(N)c1ccc(CNC(=O)Cn2c(-c3cccc(N)c3)c(Cl)nc(NC3CCC3)c2=O)cc1 [compound 90] | 0.02 µM | 16%@30 |  | 
21 | N=C(N)NCCCC(NC(=O)Cn1c(-c2cccc(N)c2)c(Cl)nc(NCc2ccccc2)c1=O)C(=O)c1nccs1 (centres unmarked) [compound 91] | 0.07 µM |  | 7 µM | 
22 | N=C(N)c1ccc(CNC(=O)Cn2c(-c3cccc(N)c3)cnc(NC3CCC3)c2=O)cc1 [compound 92] | 0.053 µM | 18%@30 |  | 
23 | CC(C)(C)Nc1nc(Cl)c(-c2cccc(N)c2)n(CC(=O)NCc2ccc(C(=N)N)cc2)c1=O [compound 93] | 0.07 µM |  | > 30 µM | 
24 | CN(C)Nc1nc(Cl)c(-c2cccc(N)c2)n(CC(=O)NCc2ccc(C(=N)N)cc2)c1=O [compound 94] | 0.04 µM |  | > 30 µM | 
25 | CNc1cccc(-c2c(Cl)nc(NC(C)C)c(=O)n2CC(=O)NCc2ccc(C(=N)N)cc2)c1 [compound 96] | 0.26 µM |  | > 30 µM | 
26 | Cc1c(N)cccc1-c1c(Cl)nc(NC(C)C)c(=O)n1CC(=O)NCc1ccc(C(=N)N)cc1 [compound 97] | 0.04 µM |  | > 30 µM | 
27 | Cc1c(N)cccc1-c1cnc(NC(C)C)c(=O)n1CC(=O)NCc1ccc(C(=N)N)cc1 [compound 98] | 0.09 µM | 10%@30 |  | 
28 | Nc1cccc(-c2c(Cl)nc(NC3CCC3)c(=O)n2CC(=O)NCc2ccccc2)c1 [compound 99] |  | 8%@30 |  | 6%@30
